Measured values from patent US20150344485A1, “BICYCLIC PYRIMIDONE COMPOUNDS AS INHIBITORS OF LP-PLA2” (GLAXOSMITHKLINE INTELLECTUAL PROPERTY DEVELOPMENT LIMITED, priority 2013, published 2015).
Like-named read-outs stand apart in the source and are kept apart here.

Key:
Lp-PLA2 in human plasma = molecular target: T1, Lp-PLA2 in human plasma (Homo sapiens, UniProt Q13093); assay: Lp-PLA2 human plasma assay (Thio-PAF assay); assay type: biochemical; details: pooled human plasma; read-out: pIC50 values in the thio-PAF assay (converted)
T1 construct: from tissue; host or cells: pooled human plasma
T1 sequence (Q13093 22-441): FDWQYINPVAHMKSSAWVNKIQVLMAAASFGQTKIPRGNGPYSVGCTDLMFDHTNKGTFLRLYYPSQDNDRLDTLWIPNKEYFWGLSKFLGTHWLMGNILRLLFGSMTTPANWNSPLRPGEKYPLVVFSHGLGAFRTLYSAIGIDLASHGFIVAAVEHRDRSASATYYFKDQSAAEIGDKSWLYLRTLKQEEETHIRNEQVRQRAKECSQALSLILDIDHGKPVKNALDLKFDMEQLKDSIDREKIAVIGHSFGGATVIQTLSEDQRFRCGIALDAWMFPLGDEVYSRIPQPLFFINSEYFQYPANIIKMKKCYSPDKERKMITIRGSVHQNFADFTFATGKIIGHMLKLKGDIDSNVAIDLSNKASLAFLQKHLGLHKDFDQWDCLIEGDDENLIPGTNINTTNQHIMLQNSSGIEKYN
From the text: The human plasma assay utilizes a thioester analog of PAF (phosphatidylcholine), where hydrolysis yields to the formation of a phospholipid containing a free thiol group. The amount of thiol is quantitated continuously by reacting with CPM (7-diethylamino-3-(4′-maleimidylphenyl)-4-methylcoumarin), a maleimide which increases in fluoresence after Michael addition of thiols. This assay may detect the activity of Lp-PLA2 in human plasma, as determined by specific inhibition by Lp-PLA2 inhibitors.
The thio-PAF assay was run as a quenched 15 μL assay. Compounds source plate was prepared by making 1:3 (by volume) serial dilution of the compounds into pure DMSO on 384-well microplate. 0.01 μL of compounds on compound source plate were transferred to 384 well Greiner 784076 (black) low-volume plates by ECHO liquid dispenser. 8 μL pooled human plasma, which was previously aliquoted and frozen, was added. Plates were centrifuged for 10 sec at 500 rpm. After 30 minutes preincubation, 2 μL of substrate solution comprising 2.5 mM 2-thio-PAF [from ethanol stock], 32 μM CPM [from a DMSO stock] and 3.2 mM NEM (N-ethylmaleimide) [made fresh daily in DMSO] in assay buffer of 50 mM HEPES, pH 7.4, 150 mM NaCl, 1 mM CHAPS was added to 384 well Greiner 784076 (black) low-volume plates by BRAVO liquid handling station. After 2 mins, reaction was quenched with 5 μL of 5% aqueous trifluoroacetic acid (TFA). Plates were covered to protect from light and incubated for 40 min at room temperature. Plates were read at ex: 380/em: 485 using-Envision microplate reader. pIC50 data, curve and QC analysis was conducted by using XLFit module in Excel.

[1] = molecular target: T2, recombinant human Lp-PLA2 (Homo sapiens, UniProt Q13093); assay: Recombinant human Lp-PLA2 assay (rhLp-PLA2, PED6 assay); assay type: biochemical
T2 sequence (Q13093 22-441): T1 sequence (Q13093 22-441)
From the text: (1) Recombinant Human Lp-PLA2 Assay (rhLp-PLA2) (Also Referred to as “PED6” Assay)
N-((6-(2,4-dinitrophenyl)amino)-hexanoyl)-2-(4,4-difluoro-5,7-dimethyl-4-bora-3a,4a-diaza-s-indacene-3-pentanoyl)-1-hexadecanoyl-sn-glycero-3-phosphoethanolamine, triethylammonium salt (PED6) is a commercially available fluorescently-labeled phospholipid, which is commercially available from Invitrogene and Molecular Probes. There is a quenching para-nitro phenyl (PNP) group in the sn3 position and a Bodipy fluorescein (FL) group in the sn2 position. Upon cleavage with Lp-PLA2, the Bodipy FL group is liberated and then may result in an increase in fluorescence. Inhibitors of Lp-PLA2 therefore prevent this cleavage and no fluorescent increase is observed.
The PED6 assay was run as an unquenched 10 μL assay. The source plate containing the compounds to be tested was prepared by making 1:3 (by volume) serial dilution of the compounds within DMSO on 384-well microplate. Then, 0.01 μL of the compounds on compound source plate were transferred into 384 well Greiner 784076 (black) plates using ECHO liquid dispenser. 5 μL of recombinant human Lp-PLA2 enzyme (4 nM (or 110 pM) rhLp-PLA2 in assay buffer of 50 mM HEPES, pH 7.4, 150 mM NaCl, 1 mM CHAPS) was added to each well of the plate. Plates were centrifuged for 10 sec at 500 rpm. After 30 minutes preincubation, 5 μL of substrate (4 μM (or 5 μM) PED6 [from 5 mM DMSO stock] in assay buffer of 50 mM HEPES, pH 7.4, 150 mM NaCl, 1 mM CHAPS) was added to 384 well Greiner 784076 (black) plates. Plates were centrifuged for 10 sec at 500 rpm. The plate was covered to protect it from light and incubated for 20 min at room temperature. The plates were read for fluorescence intensity at ex: 480/em: 540 using ViewLux microplate imager for Envision spectrofluroimeters. pIC50 data, curve and QC analysis was conducted by using XL fit module in Excel.

[2] = read-out: rhLp-PLA2 (PED6 assay) (pIC50) (converted)
[3] = read-out: pIC50 values in the recombinant human Lp-PLA2 assay (converted)

SMILES	IC50 (Lp-PLA2 in human plasma) [nM]	IC50 [1, 2] [nM]	IC50 [1, 3] [nM]
CC1CCn2c(cc(OCc3ccc(F)c(F)c3)nc2=O)N1 (stereo not shown) [E4, 8-((3,4-difluorobenzyl)oxy)-2-methyl-3,4-dihydro-1H-pyrimido[1,6-a]pyrimidin-6(2H)-one]	≤ 100	3.16	–
CC(C)Oc1c(F)cc(COc2cc3n(c(=O)n2)CC[C@H](C)N3C)cc1F [E100, (S)-8-((3,5-difluoro-4-isopropoxybenzyl)oxy)-1,2-dimethyl-3,4-dihydro-1H-pyrimido[1,6-a]pyrimidin-6(2H)-one]	–	–	≤ 1
C[C@H]1CCn2c(cc(OCc3ccc(Oc4ccc(C(F)(F)F)cc4)c(F)c3)nc2=O)N1C [E93, (S)-8-((3-fluoro-4-(4-(trifluoromethyl)phenoxy)benzyl)oxy)-1,2-dimethyl-3,4-dihydro-1H-pyrimido[1,6-a]pyrimidin-6(2H)-one]	≤ 10	–	≤ 1
C[C@@H]1CCn2c(cc(OCc3ccc(Oc4ccc(Cl)c(F)c4)c(C#N)c3)nc2=O)N1C [E76, (R)-2-(4-chloro-3-fluorophenoxy)-5-(((1,2-dimethyl-6-oxo-2,3,4,6-tetrahydro-1H-pyrimido[1,6-a]pyrimidin-8-yl)oxy)methyl)benzonitrile]	≤ 100	–	≤ 1
[2H]C([2H])(Oc1cc2n(c(=O)n1)CCC(C)(C)N2C)c1cccc(F)c1F [E73, 8-((2,3-difluorophenyl)dideuteromethoxy)-1,2,2-trimethyl-3,4-dihydro-1H-pyrimido[1,6-a]pyrimidin-6(2H)-one]	≤ 100	–	≤ 1
CN1c2cc(OCc3ccc(F)cc3)nc(=O)n2CCC1(C)C [E135, 8-((4-fluorobenzyl)oxy)-1,2,2-trimethyl-3,4-dihydro-1H-pyrimido[1,6-a]pyrimidin-6(2H)-one]	≤ 10	–	≤ 1
C[C@H]1CCn2c(cc(OCc3cc(F)c(Oc4ccnc(C(F)(F)F)c4)c(F)c3)nc2=O)N1C [E146, (S)-8-((3,5-difluoro-4-((2-(trifluoromethyl)pyridin-4-yl)oxy)benzyl)oxy)-1,2-dimethyl-3,4-dihydro-1H-pyrimido[1,6-a]pyrimidin-6(2H)-one]	≤ 10	0.0158	≤ 1
CC(C)Oc1ccc(COc2cc3n(c(=O)n2)CC[C@@H](C)N3C)cc1F [E51, (R)-8-((3-fluoro-4-isopropoxybenzyl)oxy)-1,2-dimethyl-3,4-dihydro-1H-pyrimido[1,6-a]pyrimidin-6(2H)-one]	–	50.1	–
C[C@H]1CCn2c(cc(OCc3ccc(Oc4ccc(F)c(F)c4)c(C#N)c3)nc2=O)N1C [E99, (S)-2-(3,4-difluorophenoxy)-5-(((1,2-dimethyl-6-oxo-2,3,4,6-tetrahydro-1H-pyrimido[1,6-a]pyrimidin-8-yl)oxy)methyl)benzonitrile]	≤ 10	–	≤ 1
C[C@H]1CCn2c(cc(OCc3cc(F)c(Oc4ccc(C(F)(F)F)nc4)c(F)c3)nc2=O)N1C [E46, (S)-8-((3,5-difluoro-4-((6-(trifluoromethyl)pyridin-3-yl)oxy)benzyl)oxy)-1,2-dimethyl-3,4-dihydro-1H-pyrimido[1,6-a]pyrimidin-6(2H)-one]	≤ 10	0.126	≤ 1
C[C@@H]1CCn2c(cc(OCc3ccc(Oc4ccc(F)c(C(F)(F)F)c4)cc3)nc2=O)N1C [E87, (R)-8-((4-(4-fluoro-3-(trifluoromethyl)phenoxy)benzyl)oxy)-1,2-dimethyl-3,4-dihydro-1H-pyrimido[1,6-a]pyrimidin-6(2H)-one]	≤ 10	–	≤ 1
CN1c2cc(OCc3ccc(Oc4ccc(C(F)(F)F)nc4)c(C#N)c3)nc(=O)n2CCC1(C)C [E112, 2-((6-(trifluoromethyl)pyridin-3-yl)oxy)-5-(((1,2,2-trimethyl-6-oxo-2,3,4,6-tetrahydro-1H-pyrimido[1,6-a]pyrimidin-8-yl)oxy)methyl)benzonitrile]	≤ 10	–	≤ 1
C[C@@H]1CCn2c(cc(OCc3ccc(Oc4ccc(C(F)(F)F)cc4)c(C#N)c3)nc2=O)N1C [E78]	≤ 100	–	≤ 1
C[C@H]1CCn2c(cc(OCc3cc(F)c(OC4CCCCC4)c(F)c3)nc2=O)N1C [E81, (S)-8-((4-(cyclohexyloxy)-3,5-difluorobenzyl)oxy)-1,2-dimethyl-3,4-dihydro-1H-pyrimido[1,6-a]pyrimidin-6(2H)-one]	–	–	≤ 1
CC1CCn2c(cc(OCc3cc(F)c(Oc4cccc(F)c4)c(F)c3)nc2=O)N1 (stereo not shown) [E5, 8-((3,5-difluoro-4-(3-fluorophenoxy)benzyl)oxy)-2-methyl-3,4-dihydro-1H-pyrimido[1,6-a]pyrimidin-6(2H)-one]	–	0.398	≤ 1
CC(C)N1c2cc(OCc3ccc(F)c(F)c3)nc(=O)n2CC[C@H]1C [E69, (R)-8-((3,4-difluorobenzyl)oxy)-1-isopropyl-2-methyl-3,4-dihydro-1H-pyrimido[1,6-a]pyrimidin-6(2H)-one]	–	–	≤ 1
C[C@H]1CCn2c(cc(OCc3ccc(Oc4cc(F)cc(F)c4)cc3)nc2=O)N1C [E141, (S)-8-((4-(3,5-difluorophenoxy)benzyl)oxy)-1,2-dimethyl-3,4-dihydro-1H-pyrimido[1,6-a]pyrimidin-6(2H)-one]	–	–	≤ 1
C[C@@H]1CCn2c(cc(OCc3ccc(OC4CCCC4)c(F)c3)nc2=O)N1C [E48, (R)-8-((4-(cyclopentyloxy)-3-fluorobenzyl)oxy)-1,2-dimethyl-3,4-dihydro-1H-pyrimido[1,6-a]pyrimidin-6(2H)-one]	–	7.94	–
[2H]C([2H])(Oc1cc2n(c(=O)n1)CC[C@@H](C)N2C)c1cc(F)c(F)cc1F [E23, (R)-8-(dideutero(2,4,5-trifluorophenyl)methoxy)-1,2-dimethyl-3,4-dihydro-1H-pyrimido[1,6-a]pyrimidin-6(2H)-one]	–	12.6	–
CC(C)Oc1c(F)cc(COc2cc3n(c(=O)n2)CC[C@@H](C)N3C)cc1F [E82, (R)-8-((3,5-difluoro-4-isopropoxybenzyl)oxy)-1,2-dimethyl-3,4-dihydro-1H-pyrimido[1,6-a]pyrimidin-6(2H)-one]	–	0.126	≤ 1
C[C@@H]1CCn2c(cc(OCc3ccc(OC4CCCCC4)c(F)c3)nc2=O)N1C [E67, (R)-8-((4-(cyclohexyloxy)-3-fluorobenzyl)oxy)-1,2-dimethyl-3,4-dihydro-1H-pyrimido[1,6-a]pyrimidin-6(2H)-one]	–	5.01	–
C[C@@H]1CCn2c(cc(OCc3cc(F)c(OC4CCCCC4)c(F)c3)nc2=O)N1C [E83, (R)-8-((4-(cyclohexyloxy)-3,5-difluorobenzyl)oxy)-1,2-dimethyl-3,4-dihydro-1H-pyrimido[1,6-a]pyrimidin-6(2H)-one]	–	–	≤ 1
